Structures are written as SMILES. Bounds are passed on as bounds.

The target in one assay is AMPK. Kind of assay: AMPK activation, enzyme-linked immunosorbent assay. It is filed as biochemical. Particulars: Table 10, compounds of Table 3. The method in brief:
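Read-out: ELISA, used to detect compound-driven activation of AMPK.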
What is called EC50 is the midpoint of the concentration-response curve. Read a high EC50 as lower potency in that assay. For `O=C(NC1CCN(Cc2ccncc2)CC1)c1cnc(OC2CCN(c3ccc(C(F)(F)F)cc3)CC2)cn1` [Compound 3-21, N-(1-(pyridin-4-ylmethyl)piperidin-4-yl)-5-(1-(4-(trifluoromethyl)phenyl)piperidin-4-yloxy)pyrazine-2-carboxamide], the EC50 was less than 100 nM. The same measure, in the same setting: the figure for `N#Cc1ccc(CN2CCC(NC(=O)c3cnc(OC4CCN(c5ccc(C(F)(F)F)cc5)CC4)cn3)CC2)cc1` [Compound 3-22, N-(1-(4-cyanobenzyl)piperidin-4-yl)-5-(1-(4-(trifluoromethyl)phenyl)piperidin-4-yloxy)pyrazine-2-carboxamide] is less than 100 nM; for `N#Cc1ccc(CN2CCC(NC(=O)c3cnc(OC4CCN(c5ccc(C(F)(F)F)cc5)CC4)s3)CC2)cc1` [Compound 3-23, N-(1-(4-cyanobenzyl)piperidin-4-yl)-2-(1-(4-(trifluoromethyl)phenyl)piperidin-4-yloxy)thiazole-5-carboxamide] it is less than 100 nM; for `N#Cc1ccc(CN2CCC(NC(=O)c3cnc(OC4CCN(c5ccc(C#N)cc5)CC4)s3)CC2)cc1` [Compound 3-24, N-(1-(4-cyanobenzyl)piperidin-4-yl)-2-(1-(4-cyanophenyl)piperidin-4-yloxy)thiazole-5-carboxamide] it is less than 100 nM. The same measure, in the same setting: in the case of `N#Cc1ccc(CN2CCC(NC(=O)c3cnc(OC4CCN(Cc5ccc(C(F)(F)F)cc5)CC4)s3)CC2)cc1` [Compound 3-25, N-(1-(4-cyanobenzyl)piperidin-4-yl)-2-(1-(4-(trifluoromethyl)benzyl)piperidin-4-yloxy)thiazole-5-carboxamide] it was less than 100 nM; in that of `CC(C)(C)OC(=O)N1CCC(Oc2ncc(C(=O)NC3CCN(Cc4ccc(C#N)cc4)CC3)s2)CC1` [Compound 3-26, tert-butyl 4-(5-(1-(4-cyanobenzyl)piperidin-4-ylcarbamoyl)thiazol-2-yloxy)piperidine-1-carboxylate], 1000 to 10000 nM. The same measure, in the same setting: the figure for `N#Cc1ccc(CN2CCC(NC(=O)c3ccc(C(=O)N4CCN(Cc5ccc(Cl)cc5)CC4)cc3)CC2)cc1` [Compound 3-28, 4-(4-(4-chlorobenzyl)piperazine-1-carbonyl)-N-(1-(4-cyanobenzyl)piperidin-4-yl)benzamide] is less than 100 nM; for `N#Cc1ccc(CN2CCC(NC(=O)c3ccc(C(=O)N4CCN(c5ccc(Cl)cc5)CC4)cc3)CC2)cc1` [Compound 3-29, 4-(4-(4-chlorophenyl)piperazine-1-carbonyl)-N-(1-(4-cyanobenzyl)piperidin-4-yl)benzamide] it is 10000 to 100000 nM. With `N#Cc1ccc(CN2CCC(NC(=O)c3ccc(C(=O)N4CCN(c5ccc(C(F)(F)F)cn5)CC4)cc3)CC2)cc1` [Compound 3-30, N-(1-(4-cyanobenzyl)piperidin-4-yl)-4-(4-(5-(trifluoromethyl)pyridin-2-yl)piperazine-1-carbonyl)benzamide], the EC50 was less than 100 nM.

On to `N#Cc1ccc(CN2CCC(NC(=O)c3ccc(C(=O)NC4CCN(Cc5ccc(C(F)(F)F)cc5)CC4)cc3)CC2)cc1` [Compound 3-31, N^1-(1-(4-cyanobenzyl)piperidin-4-yl)-N^4-(1-(4-(trifluoromethyl)benzyl)piperidin-4-yl)terephthalamide], for which the EC50 was less than 100 nM. Molecule `N#Cc1ccc(CN2CCC(NC(=O)c3ccc(C(=O)NC4CCN(c5ccccc5)CC4)cc3)CC2)cc1` [Compound 3-32, N^1-(1-(4-cyanobenzyl)piperidin-4-yl)-N^4-(1-phenylpiperidin-4-yl)terephthalamide] displayed an EC50 of 10000 to 100000 nM. Take `N#Cc1ccc(CN2CCC(NC(=O)c3ccc(C(=O)NC4CCN(Cc5ccccc5)CC4)cc3)CC2)cc1` [Compound 3-33, N^1-(1-benzylpiperidin-4-yl)-N^4-(1-(4-cyanobenzyl)piperidin-4-yl)terephthalamide]: the concentration giving a half-maximal response (EC50) was in the range of 10000 to 100000 nM. `N#Cc1ccc(CN2CCC(NC(=O)c3ccc4c(c3)CN(Cc3ccc(F)cc3)CC4)CC2)cc1` [Compound 3-34, N-(1-(4-cyanobenzyl)piperidin-4-yl)-2-(4-fluorobenzyl)-1,2,3,4-tetrahydroisoquinoline-7-carboxamide] came in with an EC50 of less than 100 nM. As for `O=C(NC1CCN(Cc2cccnc2)CC1)c1ccc2c(c1)CN(Cc1ccc(F)cc1)CC2` [Compound 3-35, 2-(4-fluorobenzyl)-N-(1-(pyridin-3-ylmethyl)piperidin-4-yl)-1,2,3,4-tetrahydroisoquinoline-7-carboxamide], the EC50 was in the range of 1000 to 10000 nM.

For `O=C(NC1CCN(Cc2ccc(C(F)(F)F)cc2)CC1)c1ccc2c(c1)CN(Cc1ccc(F)cc1)CC2` [Compound 3-36, 2-(4-fluorobenzyl)-N-(1-(4-(trifluoromethyl)benzyl)piperidin-4-yl)-1,2,3,4-tetrahydroisoquinoline-7-carboxamide], the EC50 is 100 to 1000 nM.

Molecule `N#Cc1ccc(CN2CCC(NC(=O)c3ccc4c(c3)CN(Cc3ccc(C#N)cc3)CC4)CC2)cc1` [Compound 3-37, 2-(4-cyanobenzyl)-N-(1-(4-cyanobenzyl)piperidin-4-yl)-1,2,3,4-tetrahydroisoquinoline-7-carboxamide] yielded an EC50 of less than 100 nM. Still for that read-out and setting: the figure for `N#Cc1ccc(CN2CCc3ccc(C(=O)NC4CCN(Cc5cccnc5)CC4)cc3C2)cc1` [Compound 3-38, 2-(4-cyanobenzyl)-N-(1-(pyridin-3-ylmethyl)piperidin-4-yl)-1,2,3,4-tetrahydroisoquinoline-7-carboxamide] is less than 100 nM.

`N#Cc1ccc(CN2CCc3ccc(C(=O)NC4CCN(Cc5ccc(C(F)(F)F)cc5)CC4)cc3C2)cc1` [Compound 3-39, 2-(4-cyanobenzyl)-N-(1-(4-(trifluoromethyl)benzyl)piperidin-4-yl)-1,2,3,4-tetrahydroisoquinoline-7-carboxamide] returned an EC50 of 1000 to 10000 nM.

Still in this assay, the particulars now being: Table 11, compounds of Table 4.
`N#Cc1ccc(CN2CCC(NC(=O)c3ccc(C(=O)N4CCN(Cc5ccc(C#N)cc5)CC4)cn3)CC2)cc1` [Compound 4-1, 5-(4-(4-cyanobenzyl)piperazine-1-carbonyl)-N-(1-(4-cyanobenzyl)piperidin-4-yl)picolinamide] displayed an EC50 of less than 500 nM. The same measure, in the same setting: the figure for `N#Cc1ccc(CN2CCC(NC(=O)c3ccc(C(=O)N4CCN(Cc5ccc(F)cc5)CC4)cn3)CC2)cc1` [Compound 4-2, N-(1-(4-cyanobenzyl)piperidin-4-yl)-5-(4-(4-fluorobenzyl)piperazine-1-carbonyl)picolinamide] is less than 500 nM; for `N#Cc1ccc(CN2CCC(NC(=O)c3ccc(C(=O)N4CCN(Cc5ccc(C(F)(F)F)cc5)CC4)cn3)CC2)cc1` [Compound 4-3, N-(1-(4-cyanobenzyl)piperidin-4-yl)-5-(4-(4-(trifluoromethyl)benzyl)piperazine-1-carbonyl)picolinamide] it is less than 500 nM. `O=C(N[C@H]1CCN(Cc2ccc(F)cc2)C1)c1ccc(C(=O)N2CCN(c3ccc(Cl)cc3)CC2)cn1` [Compound 4-4, (S)-5-(4-(4-chlorophenyl)piperazine-1-carbonyl)-N-(1-(4-fluorobenzyl)pyrrolidin-3-yl)picolinamide] had an EC50 of 1000 to 5000 nM.

In the case of `O=C(N[C@H]1CCN(Cc2ccncc2)C1)c1ccc(C(=O)N2CCN(c3ccc(Cl)cc3)CC2)cn1` [Compound 4-5, (S)-5-(4-(4-chlorophenyl)piperazine-1-carbonyl)-N-(1-(pyridin-4-ylmethyl)pyrrolidin-3-yl)picolinamide], the EC50 lay in the range of 1000 to 5000 nM.
